Measured values reported in patent US20160281089A1, “PREVENTION OF VIRAL INFECTIVITY” (priority 2005, published 2016).

What was measured:
[1] = system: HIV virions; experiment: Infectivity of ODN-pre-incubated HIV virions in C81-66/45 cells; assay type: cell-based
Experimental: As a next step we investigated the antiviral effect of ODNs by testing the infectivity of treated virions in cell culture studies. We used ODN A, ODN T, as PPT and ODN CO. 2×10^5 C81-66/45 cells were infected with virions pre-incubated with different ODNs at 0.01 MOI for 1, 2 or 4 hours prior to infection. RNA was extracted from infected cells and HIV replication was analysed by real-time PCR 3 days post-infection.
To test the specificity of suppression of viral replication, the effect of ODN A on the infectivity of virions was compared with control ODNs. Virions were pre-treated with the ODNs and HIV replication in infected cells was analysed by real-time PCR, 5 days (FIG. 6A) or 20 days post-infection (FIG. 6B) and by measuring p24 production in the supernatant of the infected cells (FIG. 6C).
(A) HIV virions were incubated with 0.5 μM of ODNs for 1, 2 or 4 hours. C81-66/45 cells were infected with pre-incubated virions, at 0.01 MOI. RNA was extracted from infected cells and HIV replication was analysed by real-time PCR, 3 days post-infection (p.i.).
(B) The same experiment as in (A) was performed with ODN T, ODN CO, asPPT and ODN A pre-treated virions.
(D) C81-66145 cells were infected with virions pre-incubated with 0.5 or 5 μM of ODNs for 4 h, at an MOI of 1. RNA was extracted from infected cells and HIV replication was analysed by real-time PCR, 3 days post-infection.
(E) C81-66/45 cells were infected with virions pre-incubated with ODN A and ODN Sc for 4 h, at an MOI of 0.01. RNA was extracted from infected cells and HIV replication was analysed by real-time PCR, 1 h and 24 h post-infection. (F) The same experiment as in (E) was performed except for using ODN T, ODN B and ODN A, 1 hour post-infection.
C81-66/45 cells were infected with virions pre-incubated with ODN A, ODN T, ODN CO or as PPT for 4 h, at MOI of 0.01. RNA was extracted from infected cells and HIV replication was analysed by real-time PCR, 5 days p.i. (A), and 20 days p.i. (B); by measuring p24 production in the medium of the infected cells (C) or by RT-PCR, 11 days p.i. (D).

[2] = target: RT/RNaseH (Human immunodeficiency virus type 1 group M subtype B, UniProt P04585); experiment: Primer extension assay on synthetic RNA2; assay type: biochemical, HIV-1; design: the HIV RT/RNase H is a heterodimer of p66 and p51 with and without RNase H; details: synthetic RNA2, FIG. 2B
Source text: To test whether an ODN-mediated activity would preferentially occur at the PPT, we analysed ODNs targeted to the extended PPT (ODN A) or to a region outside of the PPT (ODN CO and an external antisense oligodeoxynucleotide asEXT) in vitro. We used RNA2, which contains the PPT and the binding sites for ODN A, asEXT and ODN CO. […] Indeed, in the reaction mixture containing both ODN A and asEXT primers, extension products, predominantly synthesized by the RT/RNaseH, started with ODN A and not asEXT (FIG. 2B). […] Thus, the ability of the ODN A to mediate RT/RNaseH-dependent cleavage of the viral RNA is PPT-dependent.
(A) Cleavage assay. 10 nM of in vitro transcribed 5′-labeled RNA was hybridized with 10, 100 and 1000 nM of ODN A and incubated in the presence of RT/RNaseH. The cleavage products were analyzed by denaturing PAGE as described in Materials and methods. (B). Primer extension assay. Synthetic RNA2 was hybridized with ODN A, antisense primer (asEXT) or both primers combined, and the primer extension was performed as described in Materials and Methods. Elongation products were analysed by 8 M urea/10% PAGE. (C) Cleavage assay. RNA/ODN hybrids, obtained using 10 nM of RNA2 and 10 nM of ODN A, asPPT or ODN CO were incubated with RT/RNaseH and cleavage products were analyzed by denaturing PAGE as described in Materials and methods. […]

[3] = system: FUGW virus; experiment: Intravaginal treatment of FUGW virus with ODN A, lavage, real-time PCR; assay type: in vivo, C57BL/6 mice; details: 25 μM ODN, 4 h in the vagina
Source text: In order to analyse the efficiency of the ODN A in the vagina, we used a recombinant retrovirus vector (FUGW) and placed the virus with and without ODN A into the vagina. We recover the virus by lavage and tested the RNA copies by real-time PCR. […] Two different virus concentration were used. The effect can be approved due by adaptation to mucosal condition of the vagina.
The FUGW virus was used, which is a recombinant retrovirus on the basis of HIV but with safety properties. It contains a PPT identical to HIV. The virus was prepared as described (Lois C., Hong E. J., Pease S., Brown E. J. and Baltimore D. (2002). “Germline Transmission and Tissue-Specific Expression of Transgenes Delivered by Lentiviral Vectors”, Science 295, 868-872).
The incubation was followed by a lavage of the vagina. Then lavage samples from the vagina were collected for RNA extraction using QIAamp viral RNA kit. RNA were eluted in 30 μl elution buffer. For reverse transcription, 2 μl RNA were used in 12.5 μl volume and 3 μl of the cDNA were used for real time PCR. Virus reduction is dependent on the ratio of ODN A to virus titer and the reduction is 2 fold for 10^4 IU.

[4] = system: SFFV; experiment: NIH 3T3 cells infected with SFFV for 2 h and then treated; assay type: cell-based; details: treatment 2 h after infection, three concentrations, no carrier, three days post-infection
Experimental: In the next experiment NIH 3T3 cells were infected with SFFV for 2 h and then treated with three different concentrations each of ODN M, asPPT, and three different siRNAs.
c. NIH-3T3 cells were infected with SFFV for 2 hours and then treated with three decreasing concentrations of ODN M, asPPT and three different PPT-specific siRNAs. RNA was isolated from supernatants three days post-infection and analyzed by real time RT-PCR.

[5] = virions pre-incubated 4 hours with 0.5 μM ODN, 0.01 MOI, 3 days post-infection

| Sequence | HIV replication in infected cells (real-time PCR) [1, 5] | HIV replication in infected cells (real-time PCR) ([1]; ODN-pre-treated virions, MOI of 1, 3 days post-infection) | binding/uptake of pre-treated virions by host cells ([1]; pre-incubation 4 hours, HIV RNA in infected cells 1 hour post-infection) | time without sign of virus replication after infection ([1]; virions pre-incubated 4 h, MOI of 0.01, real-time PCR, p24, RT-PCR, syncytia) | viral RNA in infected cells ([1]; virions pre-treated 4 h, 24 hours after infection) | virion uptake by cells, less efficient compared to ODN Sc-treated virions ([1]; virions pre-treated 4 hours, HIV RNA in infected cells 1 hour post-infection) [%] | primer extension by RT/RNaseH compared to asEXT [2] | reduction of virus RNA copies / titer recovered by lavage [3] | reduction of virus RNA copies / titer recovered by lavage ([3]; listed as ODNA A) | virus reduction ([3]; 10^4 IU FUGW-virus) [fold] | antiviral effect, SFFV RNA in supernatants [4] |
| --- | --- | --- | --- | --- | --- | --- | --- | --- | --- | --- | --- |
| CCCTTCCAGTCCCCCCTTTTCTTTT (chemistry not given here) [asPPT, single-stranded antisense PPT of HIV, lacks the passenger strand and the linker] | low but detectable levels | – | – | – | – | – | – | – | – | – | – |
| TTTTCTTTTGGGGGGTTTGGTTGGGTTTTCCCTTCCAGTCCCCCCTTTTCTTTT (phosphorothioate linkages, further chemistry not given here) [ODN A, 25 mer antisense and 25 mer passenger strand connected by T4, phosphorothioated at each end and in linker, targeted to extended PPT of HIV-1] | complete suppression of viral replication | only partial suppression of HIV replication | did not significantly interfere with binding | at least 20 days | completely degraded | 14 | more efficiently | twofold | factor of two | 2 | – |
| TCTTTTTGGGGGGTTTGTTTGTTTTTTCTTTCATTCCCCCCTTTTTCT (chemistry not given here) [ODN M, 22-mer antisense and 22-mer second strand connected by T4, targeted to extended PPT of SFFV] | – | – | – | – | – | – | – | – | – | – | slightly superior to the asPPT but much stronger compared to siRNA |
